Assays:
Assay in all cases: IA-DTB cysteine engagement
Format in all cases: binding
Details in all cases: 22Rv1 cells, 20 μM probe, 1 h, relative to DMSO
CTC1_C584 = target: T1, CTC1_C584 (Homo sapiens, UniProt Q2NKJ3)
T1 construct: endogenous in cells; host or cells: 22Rv1
T1 sequence (Q2NKJ3 1-1217): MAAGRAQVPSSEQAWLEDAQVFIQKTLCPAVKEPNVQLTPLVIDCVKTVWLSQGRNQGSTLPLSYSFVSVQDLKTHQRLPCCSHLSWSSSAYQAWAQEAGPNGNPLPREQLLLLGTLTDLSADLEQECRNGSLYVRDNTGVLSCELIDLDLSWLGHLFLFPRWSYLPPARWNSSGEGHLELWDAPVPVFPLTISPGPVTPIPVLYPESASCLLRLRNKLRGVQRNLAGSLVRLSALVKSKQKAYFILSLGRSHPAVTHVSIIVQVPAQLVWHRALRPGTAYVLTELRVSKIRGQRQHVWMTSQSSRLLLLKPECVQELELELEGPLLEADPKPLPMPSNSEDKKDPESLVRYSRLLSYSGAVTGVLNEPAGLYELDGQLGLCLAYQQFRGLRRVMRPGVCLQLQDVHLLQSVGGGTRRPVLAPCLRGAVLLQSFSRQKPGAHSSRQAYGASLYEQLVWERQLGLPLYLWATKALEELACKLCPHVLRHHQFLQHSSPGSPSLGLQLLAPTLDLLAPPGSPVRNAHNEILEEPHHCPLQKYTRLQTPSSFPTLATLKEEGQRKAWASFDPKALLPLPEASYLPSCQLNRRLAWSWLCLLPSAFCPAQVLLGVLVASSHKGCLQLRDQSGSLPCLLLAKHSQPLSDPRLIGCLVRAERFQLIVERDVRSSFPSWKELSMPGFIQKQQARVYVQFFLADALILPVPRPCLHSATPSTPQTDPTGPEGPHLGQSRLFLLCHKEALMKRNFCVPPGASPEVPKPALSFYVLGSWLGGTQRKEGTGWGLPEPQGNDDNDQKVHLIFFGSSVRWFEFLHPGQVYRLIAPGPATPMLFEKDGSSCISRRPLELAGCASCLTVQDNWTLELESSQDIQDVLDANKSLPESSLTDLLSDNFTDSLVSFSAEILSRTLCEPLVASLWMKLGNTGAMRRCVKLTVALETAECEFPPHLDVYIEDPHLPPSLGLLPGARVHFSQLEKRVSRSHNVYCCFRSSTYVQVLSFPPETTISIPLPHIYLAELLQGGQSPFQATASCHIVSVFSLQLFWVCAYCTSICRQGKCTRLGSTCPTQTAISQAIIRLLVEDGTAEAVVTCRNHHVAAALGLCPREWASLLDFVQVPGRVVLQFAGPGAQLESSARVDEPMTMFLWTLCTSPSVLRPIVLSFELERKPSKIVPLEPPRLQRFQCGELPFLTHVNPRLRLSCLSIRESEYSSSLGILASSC
Outline: (§1)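 In-situ probe treatment of cells; lysate 2 mg/mL, IA-DTB 1 h RT; MeOH/CHCl3 precipitation, DTT/iodoacetamide, trypsin; streptavidin enrichment; TMT labeling, high-pH fractionation. Ratio = TMT reporter intensity / mean DMSO channels, median-normalized.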

LAPTM4A_C23 = target: T2, LAPTM4A_C23 (Homo sapiens, UniProt Q15012)
T2 construct: endogenous in cells; host or cells: 22Rv1
Outline: as §1

PRAF2_C34 = target: T3, PRAF2_C34 (Homo sapiens, UniProt O60831)
T3 construct: endogenous in cells; host or cells: 22Rv1
T3 sequence (O60831 1-178): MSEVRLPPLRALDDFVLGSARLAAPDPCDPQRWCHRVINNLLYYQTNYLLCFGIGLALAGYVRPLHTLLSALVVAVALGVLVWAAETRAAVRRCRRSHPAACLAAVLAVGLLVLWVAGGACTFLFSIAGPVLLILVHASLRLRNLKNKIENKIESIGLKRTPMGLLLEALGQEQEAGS
Outline: as §1

TTC3_C109 = target: T4, TTC3_C109 (Homo sapiens, UniProt P53804)
T4 construct: endogenous in cells; host or cells: 22Rv1
T4 sequence (P53804 whole entry): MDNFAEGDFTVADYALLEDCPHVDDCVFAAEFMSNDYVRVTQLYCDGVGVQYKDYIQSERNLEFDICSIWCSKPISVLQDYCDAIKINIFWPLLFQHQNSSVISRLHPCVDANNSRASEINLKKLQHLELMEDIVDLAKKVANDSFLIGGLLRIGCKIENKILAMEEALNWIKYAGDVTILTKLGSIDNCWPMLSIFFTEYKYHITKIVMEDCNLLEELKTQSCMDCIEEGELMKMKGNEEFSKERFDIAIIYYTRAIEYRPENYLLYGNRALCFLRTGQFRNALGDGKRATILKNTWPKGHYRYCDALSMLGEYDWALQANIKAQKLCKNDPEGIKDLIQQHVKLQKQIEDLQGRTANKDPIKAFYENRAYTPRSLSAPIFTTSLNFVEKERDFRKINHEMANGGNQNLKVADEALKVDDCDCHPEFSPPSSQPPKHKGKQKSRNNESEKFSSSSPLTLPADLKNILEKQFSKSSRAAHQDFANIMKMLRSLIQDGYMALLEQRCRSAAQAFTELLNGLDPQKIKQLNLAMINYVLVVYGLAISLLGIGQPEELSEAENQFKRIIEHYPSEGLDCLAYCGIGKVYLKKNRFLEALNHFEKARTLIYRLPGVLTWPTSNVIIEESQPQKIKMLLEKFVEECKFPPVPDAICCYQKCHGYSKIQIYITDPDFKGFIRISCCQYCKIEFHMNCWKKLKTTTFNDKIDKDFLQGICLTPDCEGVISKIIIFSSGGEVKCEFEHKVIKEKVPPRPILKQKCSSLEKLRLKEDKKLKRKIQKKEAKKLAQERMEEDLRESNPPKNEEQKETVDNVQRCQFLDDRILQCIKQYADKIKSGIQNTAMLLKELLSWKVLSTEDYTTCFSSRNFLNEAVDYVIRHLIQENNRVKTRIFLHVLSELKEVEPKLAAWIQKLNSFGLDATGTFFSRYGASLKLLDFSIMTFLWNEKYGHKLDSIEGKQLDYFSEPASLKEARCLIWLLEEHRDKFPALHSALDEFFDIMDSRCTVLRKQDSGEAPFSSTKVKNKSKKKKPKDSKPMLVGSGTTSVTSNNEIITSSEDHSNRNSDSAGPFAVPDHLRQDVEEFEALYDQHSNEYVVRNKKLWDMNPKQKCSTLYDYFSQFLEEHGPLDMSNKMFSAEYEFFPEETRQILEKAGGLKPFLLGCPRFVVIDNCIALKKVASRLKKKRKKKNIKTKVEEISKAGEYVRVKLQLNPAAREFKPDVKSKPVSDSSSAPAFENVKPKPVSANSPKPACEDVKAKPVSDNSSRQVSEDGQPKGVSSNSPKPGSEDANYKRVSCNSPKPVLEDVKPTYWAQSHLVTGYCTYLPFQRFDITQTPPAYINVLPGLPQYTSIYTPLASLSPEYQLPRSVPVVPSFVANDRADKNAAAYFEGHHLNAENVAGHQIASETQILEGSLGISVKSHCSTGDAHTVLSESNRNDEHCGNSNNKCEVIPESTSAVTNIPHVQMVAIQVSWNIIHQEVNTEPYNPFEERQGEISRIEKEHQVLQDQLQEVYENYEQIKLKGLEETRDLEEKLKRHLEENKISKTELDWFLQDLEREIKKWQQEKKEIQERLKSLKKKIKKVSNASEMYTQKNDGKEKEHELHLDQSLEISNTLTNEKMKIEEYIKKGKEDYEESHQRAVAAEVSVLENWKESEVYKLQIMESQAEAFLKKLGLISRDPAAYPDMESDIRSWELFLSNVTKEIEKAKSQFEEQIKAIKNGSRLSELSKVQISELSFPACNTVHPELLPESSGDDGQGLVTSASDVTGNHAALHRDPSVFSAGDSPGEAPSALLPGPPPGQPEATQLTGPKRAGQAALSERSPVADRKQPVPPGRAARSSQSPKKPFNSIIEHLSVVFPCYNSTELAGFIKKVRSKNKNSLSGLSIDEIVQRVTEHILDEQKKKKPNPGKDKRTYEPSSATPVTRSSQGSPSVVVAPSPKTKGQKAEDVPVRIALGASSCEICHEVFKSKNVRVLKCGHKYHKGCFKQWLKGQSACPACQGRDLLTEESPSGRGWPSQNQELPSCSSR
Outline: as §1

Structure (SMILES) | % engagement CTC1_C584 (CTC1_C584) [%] | % engagement LAPTM4A_C23 (LAPTM4A_C23) [%] | % engagement PRAF2_C34 (PRAF2_C34) [%] | % engagement TTC3_C109 (TTC3_C109) [%]
C=CC(=O)N1C[C@H](c2ccc(Br)cc2)[C@@H]1C(=O)Nc1cccc2cccnc12 [MY-1B, (2R,3S)-1-acryloyl-3-(4-bromophenyl)-N-(quinolin-8-yl)azetidine-2-carboxamide] | 37.25 | 54.5 | 74 | 54.5
C=CC(=O)N1C[C@H](c2ccc(Br)cc2)[C@H]1C(=O)Nc1cccc2cccnc12 [MY-3B, (2S,3S)-1-acryloyl-3-(4-bromophenyl)-N-(quinolin-8-yl)azetidine-2-carboxamide] | 66.25 | 72 | 78.5 | 21.5
C=CC(=O)N1C[C@H](c2ccc(Br)cc2)[C@H]1C(=O)Nc1cccc2cccnc12 [MY-3A, (2S,3S)-1-acryloyl-3-(4-bromophenyl)-N-(quinolin-8-yl)azetidine-2-carboxamide] | 23.5 | 48 | 55.5 | 4.5
C=CC(=O)N1C[C@@H](c2ccc(Br)cc2)[C@H]1C(=O)Nc1cccc2cccnc12 [MY-1A, (2S,3R)-1-acryloyl-3-(4-bromophenyl)-N-(quinolin-8-yl)azetidine-2-carboxamide] | 20.25 | 67 | 76 | 80.5

Reference: patent US20250034216A1, “STEREOSELECTIVE COVALENT LIGANDS FOR ONCOGENIC AND IMMUNOLOGICAL PROTEINS” (The Scripps Research Institute, priority 2021, published 2025)
